Experimental findings from BindingDB's records for doi:10.7270/Q2D798VP (Broad Institute, 2009) are described below.

As usually defined, the EC50 is the concentration needed to bring the measured effect to its halfway point.

The assay has as its target T1, Zinc finger protein mex-5 (Caenorhabditis elegans, UniProt Q9XUB2).
T1 sequence (Q9XUB2 whole entry): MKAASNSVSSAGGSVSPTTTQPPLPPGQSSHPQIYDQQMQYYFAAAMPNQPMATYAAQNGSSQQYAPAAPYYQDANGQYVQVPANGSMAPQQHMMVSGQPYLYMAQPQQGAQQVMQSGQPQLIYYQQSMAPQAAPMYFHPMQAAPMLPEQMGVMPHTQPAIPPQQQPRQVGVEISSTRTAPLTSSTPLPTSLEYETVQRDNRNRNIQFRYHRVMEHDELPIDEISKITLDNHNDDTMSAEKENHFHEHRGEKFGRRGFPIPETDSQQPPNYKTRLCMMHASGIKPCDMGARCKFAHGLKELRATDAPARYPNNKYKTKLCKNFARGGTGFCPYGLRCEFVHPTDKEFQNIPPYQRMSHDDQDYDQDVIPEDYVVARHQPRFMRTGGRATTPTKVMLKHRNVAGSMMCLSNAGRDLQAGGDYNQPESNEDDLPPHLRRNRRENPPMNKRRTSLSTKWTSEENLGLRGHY
Briefly: potency of MEX-5 RNA-binding blockers – biochemical, C. elegans, fluorescence polarization, dose response (AID 1960). (In general: Polarisation of emitted light reports the rotation of a fluorescent probe.)
In turn, `COc1cccc(CN=Nc2ncnc(N)c2[N+](=O)[O-])c1OC` [(6-amino-5-nitro-pyrimidin-4-yl)-[(2,3-dimethoxybenzylidene)amino]amine] registered a concentration giving a half-maximal response (EC50) of more than 300 µM.
To `C=CCc1cccc(C=Nn2cnnc2)c1O` [(6E)-2-allyl-6-[(1,2,4-triazol-4-ylamino)methylene]cyclohexa-2,4-dien-1-one] belongs 238 µM.
In turn, `COc1ccc(N=Cc2cc3c(cc2O)OC(=N)C(C#N)C3c2ccccc2)cc1` (stereo not given) [(6E)-2-amino-6-[(4-methoxyanilino)methylidene]-7-oxo-4-phenyl-4H-1-benzopyran-3-carbonitrile] displayed a 50% effective concentration (EC50) of more than 300 µM.
To `Cc1n[nH]c(C)c1Sc1ccccc1/N=C/C1C=C(Cl)C=C([N+](=O)[O-])C1=O` (stereo not given) [(6E)-4-chloranyl-6-[[[2-[(3,5-dimethyl-1H-pyrazol-4-yl)sulfanyl]phenyl]amino]methylidene]-2-nitro-cyclohexa-2,4-dien-1-one] belongs 7.57 µM; to `CCOc1cc(C=C2C(=N)N3N=C(S(C)(=O)=O)SC3=NC2=O)ccc1OCCOc1cccc(OC)c1` [(6E)-6-[[3-ethoxy-4-[2-(3-methoxyphenoxy)ethoxy]phenyl]methylidene]-5-imino-2-methylsulfonyl-[1,3,4]thiadiazolo[3,2-a]pyrimidin-7-one], 221 µM.
To `C=CC1=C(C(=O)O)N2C(=O)[C@@H](NC(=O)C(N=O)c3csc(N)n3)[C@H]2SC1` (stereo partly drawn) [(6R,7R)-7-[[2-(2-azanyl-1,3-thiazol-4-yl)-2-hydroxyimino-ethanoyl]amino]-3-ethenyl-8-oxidanylidene-5-thia-1-azabicyclo[4.2.0]oct-2-ene-2-carboxylic acid] belongs 33.3 µM; to `CCn1nc(C)c(C=C2CCCC3=C2OC(=N)C(C#N)C3c2c(C)nn(CC)c2C)c1C` (stereo not given) [(8E)-2-amino-4-(1-ethyl-3,5-dimethyl-1H-pyrazol-4-yl)-8-[(1-ethyl-3,5-dimethyl-1H-pyrazol-4-yl)methylene]-5,6,7,8-tetrahydro-4H-chromene-3-carbonitrile], 51.8 µM.
`CCOC(=O)N1CCC2=C(C#N)C(=N)C(C#N)(C#N)[C@H](c3ccsc3)[C@H]2C1` [(8R,8aR)-6-amino-5,7,7-tricyano-8-(3-thienyl)-1,3,8,8a-tetrahydroisoquinoline-2-carboxylic acid ethyl ester] displayed an EC50 of 58.7 µM.
`N#CC1=C2CCOC[C@@H]2[C@@H](c2ccsc2)C(C#N)(C#N)C1=N` [(8R,8aR)-6-amino-8-(3-thienyl)-1,3,8,8a-tetrahydroisochromene-5,7,7-tricarbonitrile] yielded an EC50 of more than 300 µM.
Turning to `CN1CCC2=C(C#N)C(=N)C(C#N)(C#N)[C@H](c3cccc(Cl)c3)C2C1` (stereo partly drawn) [(8S)-6-amino-8-(3-chlorophenyl)-2-methyl-1,3,8,8a-tetrahydroisoquinoline-5,7,7-tricarbonitrile], the EC50 was determined as 11.6 µM.
In the case of `CC(C)(C)OC(=O)N1CCC2=C(C#N)C(=N)C(C#N)(C#N)[C@H](c3cccnc3)[C@H]2C1` [(8S,8aR)-6-amino-5,7,7-tricyano-8-(3-pyridinyl)-1,3,8,8a-tetrahydroisoquinoline-2-carboxylic acid tert-butyl ester], the concentration for a half-maximal effect (EC50) stood at 54 µM.
For the compound `C[C@@H]1O[C@@H](O[C@@H]2[C@@H](O)[C@H](OCCc3ccc(O)c(O)c3)O[C@H](CO)[C@H]2OC(=O)/C=C/c2ccc(O)c(O)c2)[C@H](O)[C@H](O)[C@H]1O` [((2R,3R,4R,5R,6R)-6-(3,4-dihydroxyphenethoxy)-5-hydroxy-2-(hydroxymethyl)-4-((2S,3R,4R,5R,6S)-3,4,5-trihydroxy-6-methyltetrahydro-2H-pyran-2-yloxy)tetrahydro-2H-pyran-3-yl) 3-(3,4-dihydroxyphenyl)acrylate], the EC50 came to 9.83 µM. This EC50 is about 5.5-fold lower than that of the compound before.
The compound `COc1ccc(C(=O)CC=Nc2ccc([N+](=O)[O-])cc2C)c(OC)c1` [(E)-1-(2,4-dimethoxyphenyl)-3-(2-methyl-4-nitro-anilino)prop-2-en-1-one] registered an EC50 of more than 300 µM.
`COc1ccc(C(=O)CC=Nc2ccc([N+](=O)[O-])cc2C)cc1OC` [(E)-1-(3,4-dimethoxyphenyl)-3-(2-methyl-4-nitro-anilino)prop-2-en-1-one] registered an EC50 of 150 µM.
With `O=C(CC=Nc1ccc([N+](=O)[O-])cc1)c1ccc(Br)cc1` [(E)-1-(4-bromophenyl)-3-(4-nitroanilino)-2-propen-1-one], the EC50 is more than 300 µM.
Take `Cc1ccc(N=CCC(=O)c2sc(-c3ccccc3)nc2C)cc1` [(E)-1-(4-methyl-2-phenyl-1,3-thiazol-5-yl)-3-(4-toluidino)-2-propen-1-one]: the EC50 was more than 300 µM.
For `Cc1nnc(SC(=Cc2ccc(-c3ccc(Cl)cc3)o2)C(=O)O)[nH]1` [(E)-3-[5-(4-chlorophenyl)furan-2-yl]-2-[(5-methyl-1H-1,2,4-triazol-3-yl)sulfanyl]prop-2-enoic acid], the EC50 stood at 29.6 µM.
Take `CC(=N)C(C#N)C(=O)CSc1ncnc2ccccc12` (stereo not given) [(E)-3-amino-2-(2-quinazolin-4-ylsulfanylacetyl)but-2-enenitrile]: the response was half-maximal at 8.02 µM (EC50).
Regarding `O=CC(C=Nc1ccccn1)c1nc2cc(Cl)ccc2o1` (stereo not given) [(Z)-2-(5-chloranyl-1,3-benzoxazol-2-yl)-3-(pyridin-2-ylamino)prop-2-enal], the response was half-maximal at 36.4 µM (EC50).
`CCCCN1C(=O)NC(=O)C(=CNNC(=O)c2ccncc2)C1=O` [Isonicotinic acid N'-[1-butyl-2,4,6-trioxo-tetrahydro-pyrimidin-(5E)-ylidenemethyl]-hydrazide] had an EC50 of more than 300 µM.
Take `COc1cc(C2C3CN(C)CCC3=C(C#N)C(=N)C2(C#N)C#N)ccc1OC(C)C` (stereo not given) [MLS000034945]: the half-maximal effective concentration (EC50) is 31.3 µM.
As for `CC(=O)Nc1ccc(N=CCC(=O)c2ccc(C)o2)cc1` [MLS000089004], the EC50 was more than 300 µM.
In turn, `CC(=O)N=c1c(C#N)cc2c(=O)n3cccc(C)c3nc2n1CCCOC(C)C` [MLS000332846] registered a half-maximal effective concentration (EC50) of 229 µM.
For the compound `COc1ccc(CCN2C(=O)NC(=O)C(=CNc3ccc(NC(C)=O)cc3)C2=O)cc1OC` [MLS000332913], the EC50 was more than 300 µM.
Take `O=C1CCCC2=Nc3cc(Cl)ccc3SC12` (stereo not given) [MLS000333002]: the response was half-maximal at 8.9 µM (EC50).
`CCCCCCN1C(=O)C(=CNc2ccccc2N2CCOCC2)C(=O)NC1=S` [MLS000333666] returned an EC50 of more than 300 µM.
`Cc1ccc(CN=Nc2ncnc3nc[nH]c23)cc1` [MLS000419179] had a half-maximal effective concentration (EC50) of more than 300 µM.
Consider `CCOc1ccc(N=C(C(=C(Cl)C(Cl)Cl)[N+](=O)[O-])n2cncn2)cc1` [MLS000519210], for which a half-maximal effect (EC50) was put at 45.4 µM.
Next, `COc1cc(CN=Nc2ccc([N+](=O)[O-])cc2)ccc1OCC(=O)Nc1ccc(C)c(C)c1` [MLS000537060]: 234 µM; `Cc1cc(C)cc(N2C(=O)NC(=O)C(=Cc3cccn3-c3ccc(Cl)cc3)C2=O)c1` [MLS000545741]: 136 µM.
In the case of `[H]/N=C1/OC23CCCCC2C(C#N)(C#N)C1(C#N)C(c1ccc(OC)cc1)O3` (stereo not given) [MLS000554241], the half-maximal effective concentration (EC50) was 11.2 µM.
Compound `Nc1c(-c2nc3ccccc3[nH]2)c(O)cn1-c1ccc(CC(=O)O)cc1` [MLS000565528] came in with a 50% effective concentration (EC50) of 1.59 µM.
`Cc1nnc(=O)[nH]c1N=NCC1C=CC(=O)C([N+](=O)[O-])=C1` (stereo not given) [MLS000585487] returned an EC50 of 65.5 µM.
For `O=C(N[N-][CH+]c1cc([N+](=O)[O-])ccc1N1CCCC1)c1ccccn1` [MLS000684285], the 50% effective concentration (EC50) stood at 70.5 µM. This EC50 and that of the compound before are within 1.5-fold of each other.
Compound `Cc1cc(=O)n(-c2ccc(C(=O)O)c(N)c2)[nH]1` [MLS000690508] yielded an EC50 of 38.3 µM.
